{
  "source": "ChEMBL document CHEMBL4219086",
  "about": "“Development of benzoxazole deoxybenzoin oxime and acyloxylamine derivatives targeting innate immune sensors and xanthine oxidase for treatment of gout” (Bioorg Med Chem, 2018)",
  "key": {"[1]": {"test_system": "Rattus norvegicus", "assay": "(§1) Antiarthritic activity in MSU-induced acute gouty arthritis Sprague-Dawley rat model assessed as reduction in ankle swelling by measuring perimeter of ankle at 2.5 mg/kg, po qd pretreated via gavage for 5 days followed by MSU treatment at 1 hr post last dose measured after 12 hrs (reference value: 3.51 +/- 0.52 cm)", "format": "functional"}, "[2]": {"test_system": "Rattus norvegicus", "assay": "Inhibition of MSU-induced ASC protein level in synovial homogenate of acute gouty arthritis Sprague-Dawley rat model at 2.5 to 10 mg/kg, po qd pretreated via gavage for 5 days followed by MSU treatment at 1 hr post last dose measured up to 24 hrs by Western blot method", "format": "functional, organism-based"}, "[3]": {"test_system": "Mus musculus", "assay": "Hypouricemic effect in Kunming mouse assessed as inhibition of hepatic XOD activity at 2.5 mg/kg, po measured after 1 hr relative to control", "format": "organism-based"}, "[4]": {"test_system": "Rattus norvegicus", "assay": "as §1, with “10” for “2.5”, “immediately” for “after 12 hrs”, “2.64” for “3.51”, “0.81” for “0.52”", "format": "functional"}, "[5]": {"test_system": "Rattus norvegicus", "assay": "Inhibition of MSU-induced TLR4 protein level in synovial homogenate of acute gouty arthritis Sprague-Dawley rat model at 2.5 to 10 mg/kg, po qd pretreated via gavage for 5 days followed by MSU treatment at 1 hr post last dose measured up to 24 hrs by Western blot method", "format": "functional, organism-based"}, "[6]": {"test_system": "Rattus norvegicus", "assay": "as §1, with “10” for “2.5”, “8” for “12”, “3.27” for “3.51”, “0.56” for “0.52”", "format": "functional"}, "[7]": {"test_system": "Rattus norvegicus", "assay": "as §1, with “2” for “12”, “2.82” for “3.51”, “0.75” for “0.52”", "format": "functional"}, "[8]": {"test_system": "Rattus norvegicus", "assay": "as §1, with “5” for “2.5”, “8” for “12”, “3.27” for “3.51”, “0.56” for “0.52”", "format": "functional"}, "[9]": {"biological_target": "NACHT, LRR and PYD domains-containing protein 3 (Homo sapiens, UniProt Q96P20)", "sequence (Q96P20 whole entry, the tested form may be a part)": "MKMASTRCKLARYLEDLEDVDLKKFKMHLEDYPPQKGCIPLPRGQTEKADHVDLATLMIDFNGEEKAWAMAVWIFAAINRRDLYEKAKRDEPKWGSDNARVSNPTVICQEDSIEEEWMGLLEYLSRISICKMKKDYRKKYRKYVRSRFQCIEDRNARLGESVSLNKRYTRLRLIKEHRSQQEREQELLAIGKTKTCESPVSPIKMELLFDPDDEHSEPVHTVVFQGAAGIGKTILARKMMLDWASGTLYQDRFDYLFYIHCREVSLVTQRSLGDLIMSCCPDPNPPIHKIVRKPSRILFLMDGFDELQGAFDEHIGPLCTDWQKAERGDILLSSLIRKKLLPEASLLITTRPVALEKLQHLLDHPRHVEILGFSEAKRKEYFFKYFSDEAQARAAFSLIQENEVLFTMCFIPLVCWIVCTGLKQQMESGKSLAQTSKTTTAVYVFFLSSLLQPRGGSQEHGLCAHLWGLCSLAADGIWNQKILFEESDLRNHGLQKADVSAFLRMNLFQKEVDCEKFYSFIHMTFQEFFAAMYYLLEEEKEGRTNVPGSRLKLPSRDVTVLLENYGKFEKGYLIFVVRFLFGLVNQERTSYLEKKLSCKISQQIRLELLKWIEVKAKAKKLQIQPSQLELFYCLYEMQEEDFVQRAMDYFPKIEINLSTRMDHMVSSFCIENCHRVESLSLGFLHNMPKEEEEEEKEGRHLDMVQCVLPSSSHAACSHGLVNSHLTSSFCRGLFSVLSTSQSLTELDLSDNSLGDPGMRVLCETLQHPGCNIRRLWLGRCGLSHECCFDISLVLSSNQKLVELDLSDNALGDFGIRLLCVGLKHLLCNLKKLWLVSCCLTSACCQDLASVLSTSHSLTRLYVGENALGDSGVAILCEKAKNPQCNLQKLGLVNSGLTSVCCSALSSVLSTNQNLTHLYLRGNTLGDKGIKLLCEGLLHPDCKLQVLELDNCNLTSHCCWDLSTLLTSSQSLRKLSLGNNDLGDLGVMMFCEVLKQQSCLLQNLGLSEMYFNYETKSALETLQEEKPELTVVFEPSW", "assay": "Inhibition of NLRP3 inflammasome in human THP1 cells assessed as reduction in MSU-induced IL-1beta production preincubated for 1 hr followed by MSU stimulation measured after 6 hrs", "format": "cell-based"}, "[10]": {"test_system": "Rattus norvegicus", "assay": "as §1, with “5” for “2.5”", "format": "functional"}, "[11]": {"test_system": "Rattus norvegicus", "assay": "as §1, with “4” for “12”, “3.18” for “3.51”, “0.64” for “0.52”", "format": "functional"}, "[12]": {"test_system": "Rattus norvegicus", "assay": "Inhibition of MSU-induced caspase-1 protein level in synovial homogenate of acute gouty arthritis Sprague-Dawley rat model at 2.5 to 10 mg/kg, po qd pretreated via gavage for 5 days followed by MSU treatment at 1 hr post last dose measured up to 24 hrs by Western blot method", "format": "functional, organism-based"}},
  "note": "Activity calls are given as the source filed them. The rule behind the calls is not given here.",
  "data": [
    {"smiles": "COc1ccc(C/C(=N\\O)c2nc3ccc(OC)cc3o2)cc1", "values": [
      {"measurement": "Activity", "setting": "[1]", "result": 3.14, "unit": "cm"},
      {"measurement": "inhibition", "setting": "[2]", "result": "Active"},
      {"measurement": "inhibition at 2.5 mg/kg", "setting": "[3]", "result": 3.7, "unit": "%"},
      {"measurement": "Activity", "setting": "[4]", "result": 2.56, "unit": "cm"},
      {"measurement": "inhibition", "setting": "[5]", "result": "Active"},
      {"measurement": "Activity", "setting": "[6]", "result": 2.72, "unit": "cm"},
      {"measurement": "Activity", "setting": "[7]", "result": 2.78, "unit": "cm"},
      {"measurement": "Activity", "setting": "[8]", "result": 2.88, "unit": "cm"},
      {"measurement": "IC50", "setting": "[9]", "result": 1220, "unit": "nM"},
      {"measurement": "Activity", "setting": "[10]", "result": 2.99, "unit": "cm"},
      {"measurement": "Activity", "setting": "[11]", "result": 2.95, "unit": "cm"},
      {"measurement": "inhibition", "setting": "[12]", "result": "Active"}
    ]}
  ]
}
